Source: PMC11352273, “The Proapoptotic Action of Pyrrolidinedione–Thiazolidinone Hybrids towards Human Breast Carcinoma Cells Does Not Depend on Their Genotype” (Cancers, 2024)
Several values for one entry are separate records, joined by “and”; a condition that tells them apart may be missing. Equal values may be shown once. Read-outs that look alike come from different tables or passages of the source.

Key:
T-47D cells = assay: MTT assay; format: cell-based; conditions: Homo sapiens, T47D, read-out: IC50, µM (M ± SD)
Experimental: (§1) The MCF-7 and MDA-MB-231 cells were cultured in the DMEM medium containing 10% of the FBS, HCC1954, T-47D, and 4T1 cells in the RPMI-1640 medium with the addition of 10% of the FBS, and MCF-10A cells in MEGM Mammary Epithelial Cell Growth Medium BulletKit supplemented with penicillin/streptomycin cocktail and 5% of horse serum. The cells were cultured in a […] atmosphere at 5% CO2 and 37 °C. After trypsinization, cells were counted using a Scepter 3.0 handheld automated cell counter (Millipore, Burlington, MA, USA).
(§2) The MTT test was used to assess the metabolic activity of cells treated with the investigated substances following the Sigma-Aldrich manufacturer’s instructions. Briefly, compounds were added in 100 µL of the cultural medium, and cells were incubated for the next 24 and 48 h. Doxorubicin was used as a reference drug. The DMSO was added to dissolve the crystals of formazan. We used the ThermoScientific Evolution 201 UV–VIS spectrophotometer (ThermoFisher Scientific, Waltham, MA, USA) to measure the absorbance of formazan at 570 nm. The initial value of the relative number of cells in control (under 0.1% of the DMSO) was accepted as 100%. We used GraphPad Prism Version 9 to calculate the half-maximal inhibition concentration (IC50) of the studied compounds (the concentration of the drug that reduced cell viability by 50%).

MDA-MB-231 cells [1] = assay: MTT assay; format: cell-based; conditions: Homo sapiens, read-out: IC50, µM (M ± SD)
Experimental: as §1, §2

MCF-7 cells [2] = assay: MTT assay; format: cell-based; conditions: Homo sapiens, read-out: IC50, µM (M ± SD)
Experimental: as §1, §2

HCC1954 cells = assay: MTT assay; format: cell-based; conditions: Homo sapiens, read-out: IC50, µM (M ± SD)
Experimental: as §1, §2

[3] = system: BECN1 in MDA-MB-231 cells; assay: qPCR gene expression; format: cell-based, human; conditions: MDA-MB-231, 24 h, 1 µM
Experimental: (§3) Total RNA was isolated using the RNeasy Mini Kit (Qiagen, Venlo, The Netherlands) according to the manufacturer’s protocol and quantified on a NanoDrop spectrophotometer (NanoDrop™ One/OneC, ThermoFisher, Waltham, MA, USA). Next, 1 μg of RNA from every sample was reverse transcribed using a High-Capacity cDNA Reverse Transcription Kit (ThermoFisher, Waltham, MA, USA) according to the standard manufacturer’s instructions. The expression of genes, namely MAP1LC3b (Bio-Rad, Hercules, CA, USA) and BECN1 (Bio-Rad, Hercules, CA, USA), was evaluated using SsoAdvanced Universal SYBR Green Supermix (Bio-Rad, Hercules, CA, USA) on the StepOne Plus system (ThermoFisher, Waltham, MA, USA). StepOne Software v2.3 (Thermo Fisher Scientific, Waltham, MA, USA) was used for results calculations. The results were normalized to GAPDH (Bio-Rad, Hercules, CA, USA) and untreated cells (control). Data were presented as a relative expression using the 2^−ΔΔCt method.

[4] = system: MAP1LC3B in MDA-MB-231 cells; assay: qPCR gene expression; format: cell-based, human; conditions: MDA-MB-231, 24 h, 1 µM
Experimental: as §3

BECN1 in MCF-7 cells = assay: qPCR gene expression; format: cell-based, human; conditions: MCF-7, 24 h, 1 µM
Experimental: as §3

MAP1LC3B in MCF-7 cells = assay: qPCR gene expression; format: cell-based, human; conditions: MCF-7, 24 h, 1 µM
Experimental: as §3

MDA-MB-231 cells [5] = assay: Annexin V/PI flow cytometry of apoptosis; format: cell-based, human; conditions: MDA-MB-231, 24 h
Experimental: (§4) Cells were washed twice with cold PBS and resuspended in the Binding Buffer from the Kit. The FITC Annexin V and propidium iodide (PI) were added to 100 µL of cell suspension and incubated for 15 min at room temperature, protected from light. Then, 300 µL of Binding Buffer was added, and samples were analyzed using a flow cytometer. A total of 10,000 events were measured. The FACSDiva software (Version 6.1.3, BD Biosciences Systems, San Jose, CA, USA) was applied to analyze all flow cytometry data. The BD Cytometer Setup and Tracking Beads (BD Biosciences, San Diego, CA, USA) were used for the calibration of the flow cytometer.

MCF-7 cells [6] = assay: Annexin V/PI flow cytometry of apoptosis; format: cell-based, human; conditions: MCF-7, 24 h
Experimental: as §4

MCF-10A cells [7] = assay: MTT assay; format: cell-based, human; conditions: Homo sapiens, MCF-10A, MCF-10A
Experimental: as §1, §2

MCF-10A cells [8] = assay: Clonogenic assay; format: cell-based; conditions: Homo sapiens; for IC50: 72 h exposure, 14 days culture, read-out: IC50 (M ± SD) in clonogenic assay
Experimental: The clonogenic assay was carried out utilizing the previously published methodology. The MCF-7, MDA-MB-231, HCC1954, and MCF-10A cells (500 cells/2 mL) were seeded in a 12-well plate overnight. Afterward, studied derivatives or doxorubicin (1, 2.5, 5, 10, and 50 µM) were added to cells. The media was changed after 72 h to a compound-free one, and the cells were cultured for the following 14 days. Then, the cells were washed, fixed, and stained with 0.1% crystal violet. After washing, the plates were dried at room temperature. The colonies were recorded by ImageJ software (Version 1.30). The value of colonies in control (non-treated cells) was accepted as 100%. The effect of compounds on the colony-forming ability of cells was expressed as the percentage of colonies compared to the control.

[9] = 24 h, 24 h, read-out: IC50, µM (M ± SD)
[10] = 48 h, 48 h, read-out: IC50, µM (M ± SD)

SMILES | IC50 (T-47D cells; 24 h) | IC50 (T-47D cells; 48 h) | IC50 (MDA-MB-231 cells [1]; MDA-MB-231, 24 h) | IC50 (MDA-MB-231 cells [1]; MDA-MB-231, 48 h) | IC50 (MCF-7 cells [2]; MCF7, MCF-7, 24 h) | IC50 (MCF-7 cells [2]; MCF7, MCF-7, 48 h) | IC50 (HCC1954 cells; HCC1954, 24 h) | IC50 (HCC1954 cells; HCC1954, 48 h) | BECN1 gene expression compared to control cells [3] | MAP1LC3B gene expression compared to control cells [4] | BECN1 gene expression compared to control cells (BECN1 in MCF-7 cells) | MAP1LC3B gene expression compared to control cells (MAP1LC3B in MCF-7 cells) | early apoptotic cells (MDA-MB-231 cells [5]; 1 µM) | late apoptotic cells (MDA-MB-231 cells [5]; 1 µM) | necrotic cells (MDA-MB-231 cells [5]; 1 µM) | early apoptotic cells (MCF-7 cells [6]; 1 µM) | late apoptotic cells (MCF-7 cells [6]; 1 µM) | necrotic cells (MCF-7 cells [6]; 1 µM) | IC50 (MCF-10A cells [7]; [9]) | IC50 (MCF-10A cells [7]; [10]) | further results
O=C1CC(N2C(=O)C(=CC(Cl)=Cc3ccc([N+](=O)[O-])cc3)SC2=S)C(=O)N1c1ccc(O)cc1 (stereo not shown) [Les-6287, 1-(4-hydroxyphenyl)-3-[5-[2-chloro-3-(4-nitrophenyl)prop-2-enylidene]-4-oxo-2-thioxothiazolidine-3-yl]pyrrolidine-2,5-dione] | 3.11 ± 0.19 µM | 1.74 ± 0.25 µM | 3.86 ± 0.24 µM | 1.37 ± 0.15 µM | 2.34 ± 0.16 µM | 1.43 ± 0.18 µM | 2.52 ± 0.65 µM | 2.25 ± 0.64 µM | did not affect | did not affect | did not affect | did not affect | 2.10 ± 0.14% | 5.10 ± 0.49% | 0.90 ± 0.02% | 3.85 ± 1.20% | 21.60 ± 0.78% | 0.50 ± 0.24% | 93 ± 2.29 µM | 64.6 ± 0.68 µM | early apoptotic cells (MDA-MB-231 cells [5]; 1.5 µM): 5.65 ± 0.92%; late apoptotic cells (MDA-MB-231 cells [5]; 1.5 µM): 29.00 ± 9.76%; necrotic cells (MDA-MB-231 cells [5]; 1.5 µM): 4.50 ± 1.82%; necrotic cells, range (MDA-MB-231 cells [5]; 1 and 1.5 µM): 0.90–4.50%; early apoptotic cells (MCF-7 cells [6]; 1.5 µM): 2.30 ± 0.42%; late apoptotic cells (MCF-7 cells [6]; 1.5 µM): 29.35 ± 6.43%; necrotic cells (MCF-7 cells [6]; 1.5 µM): 0.30 ± 0.11%; necrotic cells, range (MCF-7 cells [6]; 1 and 1.5 µM): 0.30–0.50%; IC50 (MCF-10A cells [7]; time point not specified (24 and 48 h), read-out: IC50 towards MCF-10A cells): > 64.6 µM; IC50 (MCF-10A cells [8]): > 50000 nM; inhibition at 50 µM (MCF-10A cells [8]; compound at 50 µM, read-out: inhibition of the formation of colonies): 32.6%
COc1cccc2c1C(=O)c1c(O)c3c(c(O)c1C2=O)C[C@@](O)(C(=O)CO)C[C@@H]3O[C@H]1C[C@H](N)[C@H](O)[C@H](C)O1 [Dox, doxorubicin, reference compound] | 3.66 ± 0.33 µM | 2.31 ± 0.24 µM | 6.18 ± 0.08 µM | 1.09 ± 0.09 µM | 3.47 ± 0.49 µM | 0.18 ± 0.07 µM | 1.9 ± 0.11 µM | 1.15 ± 0.16 µM | significantly increased | significantly increased | significantly increased | significantly increased | 0.10 ± 0.01% | 42.20 ± 17.25% | 51.25 ± 3.36% and 51.25% | 0.55 ± 0.07% | 60.60 ± 7.35% | 31.75 ± 5.59% and 31.75% | 15.9 ± 0.91 µM | 0.23 ± 0.05 µM | IC50 (MCF-10A cells [8]): 470 ± 110 nM
